Test results as given in US6878715B1, “Therapeutic compounds for inhibiting interleukin-12 signals and method for using same” (Cell Therapeutics, Inc., priority 1994, dated 2005).

Tested on: IL-12 induced Th1 differentiation (splenic T cells)
Test: IL-12 dependent in vitro T-helper cell (Th1) differentiation assay, IFN-γ production upon secondary anti-CD3 stimulation
Format: cell-based
Details: read-out: IC50, inhibition of IL-12 induced Th1 differentiation as defined by IFN-γ production
Protocol: This example illustrates the inventive compounds' ability to suppress Th1 differentiation in vitro by blocking IL-12 signalling. Each of compounds A through Y were tested in an IL-12 dependent in vitro T-helper cell differentiation assay as described in LeGross et al., J. Exp. Med., 172:921-929 (1990). Recombinant IL-12 was used to induce Th1 differentiation. Spenic T cells were purified utilizing the antibodies RA3-3A1/6.1 (anti-B220), J11d and MAR18.5 (anti-rat kappa chain) to deplete the B cells via complement mediated toxicity following the procedure set forth in Klaus et al., J. Immunol., 149:1867-1875 (1992). Splenic T cells were stimulated at 5×10^5/ml with insoluble anti-CD3 alone (145-2C11, Pharmingen, San Diego, Calif.), or anti-CD3 and 5 U/ml IL-12, with and without each inventive compound. After seven days, equal numbers of viable cells were restimulated for 24 hours with anti-CD3 without the inventive compounds, and the supernatants were collected and assayed for IFN-γ production. IFN-γ and IL-4 levels were measured by Interest kits from Genzyme specific for IFN-γ and IL-4.
Th1 differentiation was induced by culturing anti-CD3 stimulated T cells in the presence of exogenous IL-12. […] The values in the “IC50 μM” column were determined by measuring the inhibition of IL-121 induced Th1 differentiation as defined by IFN-γ production upon secondary stimulation with anti-CD3 alone. None of the compounds affected the viability or recovery of T cells after one week of culture.

Row | Structure (SMILES) | IC50
1 | CNc1nc2c([nH]1)c(=O)n(CCCC[C@@H](C)O)c(=O)n2C [CT12447, (R)-1-(5-hydroxyhexyl)-3-methyl-8-methylaminoxanthine] | 25 µM
2 | C[C@@H](O)CCCCn1c(=O)c2[nH]c(=O)[nH]c2n(C)c1=O [CT12452, (R)-1-(5-hydroxyhexyl)-3-methyluric acid] | 35 µM

Same assay, conditions: splenic T cells, anti-CD3 and 5 U/ml IL-12, seven days with compound, restimulated 24 hours with anti-CD3 alone, read-out: IC50, inhibition of IL-12 induced Th1 differentiation as defined by IFN-γ production

Row | IC50 | Structure (SMILES)
3 | 21 µM | CC(CCCCn1c(=O)c2c(ncn2C)n(C)c1=O)NO (centres unmarked) [CT7549, 1-(5-(N-Hydroxy)aminohexyl)-3,7-dimethylxanthine]
4 | 35 µM | C[C@@H](O)CCCCn1c(=O)n(C)c(=O)c2c1ncn2C [CT11495, (R)-3-(5-Hydroxyhexyl)-1,7-dimethylxanthine]
5 | 30 µM | C[C@@H](O)CCCCn1c(=O)c2c([nH]c(=O)n2C)n(C)c1=O [CT11499, (R)-1-(5-Hydroxyhexyl)-3,7-dimethyluric acid]
6 | 28 µM | C[C@@H](O)CCCCn1c(=O)c2c(ncn2Cc2ccccc2)n(C)c1=O [CT12404]
7 | 30 µM | Cc1nc2c(c(=O)n(CCCC[C@@H](C)O)c(=O)n2C)n1Cc1ccccc1 [CT12407, (R)-1-(5-hydroxyhexyl)-7-benzyl-3,8-dimethylxanthine]
8 | 19 µM | C[C@@H](O)CCCCn1c(=O)c2c(ncn2C)n(Cc2ccco2)c1=O [CT12422, (R)-3-(2-Furylmethyl)-1-(5-hydroxyhexyl)-7-methylxanthine]
9 | 9 µM | C[C@@H](O)CCCCn1c(=O)c2[nH]c(CN)nc2n(C)c1=O [CT12440, (R)-8-Aminomethyl-1-(5-hydroxyhexyl)-3-methylxanthine]
10 | 19 µM | CNCc1nc2c([nH]1)c(=O)n(CCCC[C@@H](C)O)c(=O)n2C [CT12441, (R)-1-(5-hydroxyhexyl)-3-methyl-8-(N-methyl)aminomethylxanthine]
11 | 27 µM | Cc1cn(C)c2c1c(=O)n(CCCC[C@@H](C)O)c(=O)n2C [CT12458, (R)-3-(5-Hydroxyhexyl)-1,7,9-dimethyl-2,4-pyrrolo[2,3-d]pyrimidinedione]
12 | 17 µM | Cc1c[nH]c2c1c(=O)n(CCCC[C@@H](C)O)c(=O)n2C [CT12459, (R)-1,9-dimethyl-3-(5-hydroxyhexyl)-2,4-pyrrolo[2,3-d]pyrimidinedione]
13 | 21.8 µM | C[C@@H](O)CCCCn1c(=O)c2c(ncn2C)n(CCCCCCNC(=O)CCCC[C@@H]2SC[C@@H]3NC(=O)N[C@@H]32)c1=O [CT12460, (R)-3-(6-biotinylamidohexyl)-1-(5-hydroxyhexyl)-7-methylxanthine]
14 | 17 µM | C[C@@H](O)CCCCn1c(=O)c2nsnc2n(C)c1=O [CT12461, (R)-3-(5-hydroxyhexyl)-1-methyl-[1,2,5]thiadiazolo[3,4]pyrimidine-2,4-dione]
15 | 31 µM | C[C@@H](O)CCCCn1c(=O)c2[nH]nnc2n(C)c1=O [CT12463, (R)-1-(5-Hydroxyhexyl)-3-methyl-8-azaxanthine]
16 | 12 µM | C[C@@H](O)CCCCn1c(=O)c2c(nnn2C)n(C)c1=O [CT12464, (R)-3,7-dimethyl-1-(5-hydroxyhexyl)-8-azaxanthine]
17 | 15 µM | C[C@@H](O)CCCCn1c(=O)c2nn(C)nc2n(C)c1=O [CT12465, (R)-3,8-Dimethyl-1-(5-hydroxyhexyl)-8-azaxanthine]
18 | 24.7 µM | CNc1nc2c(c(=O)n(CCCC[C@@H](C)O)c(=O)n2C)n1C [CT12481, (R)-3,7-dimethyl-1-(5-hydroxyhexyl)-8-N-methylaminoxanthine]
19 | 10 µM | C[C@@H](O)CCCCn1c(=O)c2c(nc(N(C)C)n2C)n(C)c1=O [CT12485, (R)-3,7-Dimethyl-8-N,N-dimethylamino-1-(5-hydroxyhexyl)-xanthine]
20 | 20 µM | CSc1nc2c([nH]1)c(=O)n(CCCC[C@@H](C)O)c(=O)n2C [CT12490, (R)-1-(5-Hydroxyhexyl)-3-methyl-8-methylsulfanylxanthine]
21 | 9 µM | C[C@H](CCCCn1c(=O)c2c(ncn2C)n(C)c1=O)OP(=O)(O)O [CT17557]
22 | 10 µM | C[C@H](O)CCCCn1c(=O)c2c(ncn2Cc2ccccc2)n(C)c1=O [CT22404, (S)-1-(5-Hydroxyhexyl)-7-benzyl-3-methylxanthine]
23 | 30 µM | C[C@H](O)CCCCn1c(=O)c2c(nnn2C)n(C)c1=O [CT22464, (S)-3,7-Dimethyl-1-(5-hydroxyhexyl)-8-azaxanthine]
24 | 14 µM | C[C@H](O)CCCCn1c(=O)c2nn(C)nc2n(C)c1=O [CT22465, (S)-3,8-dimethyl-1-(5-hydroxyhexyl)-8-azaxanthine]

Tested on: adoptive transfer EAE
Test: Adoptive transfer experimental allergic encephalomyelitis (EAE) model
Format: in vivo, mice
Details: bid, by gavage, first 5 days; vs vehicle only; FIG. 2
Protocol: An adoptive transfer experimental allergic encephalomyelitis (EAE) model was used, in which the splenic T cells from actively immunized mice were cultured for 4 days in antigen-containing (myelin basic protein) medium. The cells were then transferred to naive recipients, which were then evaluated for clinical changes in motor nerve function in the presence or absence of treatment with LSF or the compound of Example 22 (CT11558). Both compounds were administered on a bid schedule, by gavage, for the first 5 days.

Row | Structure (SMILES) | magnitude of observable clinical deficits (motor nerve function) | onset of observable clinical deficits (motor nerve function)
25 | C[C@H](CCCCn1c(=O)c2c(ncn2C)n(C)c1=O)N(C)C [CT11558, (R)-1-(5-N,N-dimethylaminohexyl)-3,7-dimethylxanthine] | decrease in the magnitude | significant delay in the onset
26 | C[C@@H](O)CCCCn1c(=O)c2c(ncn2C)n(C)c1=O [LSF, (R)-1-(5-Hydroxyhexyl)-3,7-dimethylxanthine, reference compound] | decrease in the magnitude | significant delay in the onset

Tested on: IL-12 induced IFN-γ secretion
Test: IL-12 induced IFN-γ secretion (interferon gamma induction) assay in splenocyte culture
Format: cell-based
Details: compound added to a culture of splenocytes; FIG. 1
Protocol: The ability of IL-12 to induce generation of Th1 cells is aided by IFN-γ, a cytokine which is known to be induced by IL-12 itself. (R)-3-(N-biotinyl-6-aminohexyl)-1-(5-hydroxyhexyl)-7-methylxanthine (CT12460) and (R)-3-(N-biotinyl-2-aminoethyl)-1-(5-hydroxyhexyl)-7-methylxanthine (CT13410) were tested in an interferon gamma (IFN-γ) induction assay as described in Kobayashi, M., et al., “Identification and Purification of Natural Killer Cell Stimulatory Factor (NKSF), A Cytokine with Multiple Biologic Effects on Human Lymphocytes,” J. Exp. Med.U., 170:827-845 (at 829, 830 and 836) (1989). See also, Wolf, S., et al., “Interluekin 12: A Key Modulator of Immune Function,” Stem Cells, 12:154-168 (1994) and Trinchieri, supra.

Row | Structure (SMILES) | IL-12 induced IFN-γ secretion
27 | C[C@@H](O)CCCCn1c(=O)c2c(ncn2C)n(CCCCCCNC(=O)CCCC[C@@H]2SC[C@@H]3NC(=O)N[C@@H]32)c1=O [CT12460, (R)-3-(6-biotinylamidohexyl)-1-(5-hydroxyhexyl)-7-methylxanthine] | inhibited
28 | C[C@@H](O)CCCCn1c(=O)c2c(ncn2C)n(CCNC(=O)CCCC[C@@H]2SC[C@@H]3NC(=O)N[C@@H]32)c1=O [CT13410, (R)-3-(6-biotinylamidoethyl)-1-(5-hydroxyhexyl)-7-methylxanthine] | inhibited

Tested on: GVHD
Test: Graft-versus-host disease (GVHD) model
Format: in vivo
Details: bid, by gavage, first 5 days; assessed over 36 days after adoptive transfer of cells; vs vehicle control; FIG. 3
Protocol: In a GVHD model, an irradiated F1 hybrid recipient population, bred across a parental major H2 mismatch, was infused with maternal cells activated in vitro with conconavalian A (Con A) and IL-12. LSF and the compound of Example 7 (CT12441) were compared with a vehicle control for efficacy. Both compounds were administered on a bid schedule, by gavage, for the first 5 days.

Row | Structure (SMILES) | survival
29 | CNCc1nc2c([nH]1)c(=O)n(CCCC[C@@H](C)O)c(=O)n2C [CT12441, (R)-1-(5-hydroxyhexyl)-3-methyl-8-(N-methyl)aminomethylxanthine] | significant increase of survival
30 | C[C@@H](O)CCCCn1c(=O)c2c(ncn2C)n(C)c1=O [LSF, (R)-1-(5-Hydroxyhexyl)-3,7-dimethylxanthine, reference compound] | significant increase of survival
